Experimental data taken from PubChem BioAssay AID435002 (The Scripps Research Institute Molecular Screening Center, 2010).
pIC50: −log10 of the molar value.

Test system: HEK293 cells, ROS production inhibition counter-screen
Test: HEK293 ROS counter-screen potency – cell-based, IC50, set 2, counter-screen for NOX1 inhibitor project, late-stage follow-up (AID 435002)

With CN(C)c1ccc(NC(=O)Nc2ccc(OCc3ccccc3)cc2)cc1 the pIC50 was 5.63.

COc1cc(-c2nc(-c3ccccc3)c(-c3ccccc3)[nH]2)ccc1O gave a pIC50 of 5.74.

FC(F)(F)c1ccc2c(c1)Nc1ccccc1S2 showed a pIC50 of 6.00.

For Cc1cc(Cl)ccc1NC(=S)NNC(=S)Nc1ccc(F)cc1, the pIC50 was 6.02.
